Where two headings read alike, the source gives them in different places.
Assay: Urinary quinic acid, hippuric acid, tryptophan and nicotinamide by HPLC
Format: in vivo, human
Conditions: for urinary tryptophan at start of treatment / urinary nicotinamide at start of treatment: 8 May 2006 and 15 May 2006; for dose excreted at 9 month: urine, oral, read-out: Dose recovery (excrete/dose), excreted as unmetabolized quinic acid
Experimental: Blood samples were collected by venal puncture using vacutainers (red top, 10 ml) usually in the morning (a.m.) after 12 hours of fasting. Serum was separated from the blood clot after setting 2 hr on the bench top before centrifugation for 10 min at 1500×g. Sera prepared in this manner were stored at +4° C. until biochemical analysis usually within 1-30 days of collection. Urine samples were collected as a random 50 ml sample in the A.M. during the treatment and follow-up (after treatment for 8 months) periods. Urine was spun at 5000×g for 15 min and the supernatant stored at +4° C. until analyzed within 1 month of collection. After the first analysis all samples were further stored at −20° C. and used for repeat determinations over time. Trial design for the clinical evaluation of Aqua Bimini™ (quinic acid ammonium chelate) was carried out at Lund University beginning Apr. 28, 2006. […] Repeat serum and urine samples were collected throughout the trial period and then pooled into groups for analysis as 6 weeks before (baseline), 4 weeks of intervention (treatment, 36 days) and 8 months dry-out (no treatment). Urine samples were mixed with 1:2:4 v/v/v of: aqueous urine:95% ethanol:ethyl acetate for 10 min with vigorous shaking. The ethyl acetate layer was allowed to separate with gravity at room temperature, and then it was removed with a pipette and evaporated with an air stream to dryness in a vacuum hood. In this manner 1-2 ml of urine were reconstituted in 0.2 ml water or ethanol which represented a 5-10 fold increase in concentration. […] The urine samples were diluted 1:2:4 v/v/v with ethanol and ethyl acetate, and then the ethyl acetate fraction dried, solubilized in 0.2 ml water and used for HPLC analyses with 20 μl injections directly onto a C18 80×4.6 mm. The mobile phase was 0.2% trifluoroacetic (TFA):methanol:acetonitrile (70:30):water in a ratio 8:8:84 (v/v/v). The UV detector was set at 215 nm, and quinic acid eluted with a retention of 0.97-1.05 min and nicotinamide at 2.6-2.9 min. The detection limit in urine was about 1.5 mg/ml for quinic acid and for nicotinamide it was 0.015 mg/ml. […] The urine samples were diluted 1:2:4 v/v/v with ethanol and ethyl acetate, and then the ethyl acetate fraction dried, solubilized in 0.2 ml water and used for HPLC analyses with 20 μl injections directly onto a C18 80×4.6 mm. The mobile phase was 70:30 v/v, 0.2% TFA: 30% methanol. The UV detector was set at 225 nm. Tryptophan eluted after 5.2-5.4 min and hippuric acid after 3.1-3.4 min.

[1] = 3000 mg/day for 36 days (printed HL)
[2] = subject one (3000 mg/day), 1st 4 months no treatment, n=11
[3] = subject one (3000 mg/day), 2nd 4 months no treatment, n=3
[4] = subject one, 3000 mg/day QA (30 days), n=5
[5] = subject two (1500 mg/day), 1st 4 months no treatment, n=6
[6] = subject two (1500 mg/day), 2nd 4 months no treatment, n=6
[7] = subject two, 1500 mg/day QA (30 days), n=5

O=C(O)[C@]1(O)C[C@@H](O)[C@@H](O)[C@H](O)C1 [Aqua Bimini™, quinic acid ammonium chelate]
urinary tryptophan at start of treatment (3000 mg/day (printed HL)): 9.32 µM | Increase in urinary quinic acid (QA) metabolite (ratio), tryptophan [1]: 2.44 | Increase tryptophan/increase thiols [1]: 1.94 | average urinary tryptophan during treatment + follow-up [1]: 22.7 µM | Increase in urinary quinic acid (QA) metabolite (ratio), nicotinamide (HL 1500 mg/day for 36 days): 2.83 | Increase in urinary quinic acid (QA) metabolite (ratio), tryptophan (HL 1500 mg/day for 36 days): 0.99 | Increase nicotinamide/increase thiols (HL 1500 mg/day for 36 days): 2.32 | Increase tryptophan/increase thiols (HL 1500 mg/day for 36 days): 0.82 | average urinary nicotinamide during treatment + follow-up (HL 1500 mg/day for 36 days): 215 µM | average urinary tryptophan during treatment + follow-up (HL 1500 mg/day for 36 days): 21.3 µM | urinary nicotinamide at start of treatment (HL 1500 mg/day): 76 µM | urinary tryptophan at start of treatment (HL 1500 mg/day): 19.3 µM | Increase in urinary quinic acid (QA) metabolite (ratio), nicotinamide (RP 3000 mg/day for 36 days): 5.41 | Increase nicotinamide/increase thiols (RP 3000 mg/day for 36 days): 4.29 | average urinary nicotinamide during treatment + follow-up (RP 3000 mg/day for 36 days): 57.9 µM | urinary nicotinamide at start of treatment (RP 3000 mg/day): 10.7 µM | Dose recovery (excrete/dose), excreted as unmetabolized quinic acid (Subject 3000 mg/day, 9 month evaluation period): 59% | Ratio of total dose excreted in 9 months (human, in vivo, 9 months): 2.86 | remaining dose absorbed as hippuric acid or further metabolized to other compounds (human, in vivo, 1 day): 29.7% | dose excreted at 9 month (human, 1500 mg/day, Subject 1500 mg/day, 9 month evaluation period): 40% | dose excreted at 9 month (human, 3000 mg/day, Subject 3000 mg/day, 9 month evaluation period): 56% | Urinary excretion daily sample, Tryptophan (avg) (oral human dose 21-42 mg/kg (1500-3000 mg/day), 33 days, average over 9 months of RP and HL): Tryptophan. = 4.2 mg/liter^b | urinary Nicotinamide [2]: 71 ± 44 µM | urinary Tryptophan [2]: 22 ± 7 µM | urinary Nicotinamide [3]: 71 ± 63 µM | urinary Tryptophan [3]: 19 ± 6 µM | urinary Nicotinamide (subject one (3000 mg/day), total sample mean, 9 months, n=19): 58 ± 46 µM | urinary Tryptophan (subject one (3000 mg/day), total sample mean, 9 months, n=19, listed as QA): 19 ± 7 µM | urinary Nicotinamide [4]: 21 ± 16 µM | urinary Tryptophan [4]: 13 ± 5 µM | urinary Nicotinamide [5]: 453 ± 139 µM | urinary Tryptophan [5]: 30 ± 8 µM | urinary Nicotinamide [6]: 24 ± 7 µM | urinary Tryptophan [6]: 17 ± 7 µM | urinary Nicotinamide (subject two (1500 mg/day), total sample mean, 9 months, n=17): 216 ± 210 µM | urinary Tryptophan (subject two (1500 mg/day), total sample mean, 9 months, n=17, listed as QA): 22 ± 9 µM | urinary Nicotinamide [7]: 163 ± 91 µM | urinary Tryptophan [7]: 18 ± 5 µM | ratio of nicotinamide/thiols ratios, 3000 versus 1500 mg per day (theoretical dose ratio 2.0): 1.85 | ratio of tryptophan/thiols ratios, 3000 versus 1500 mg per day (theoretical dose ratio 2.0): 2.4
